Measurements published in patent US12209102B2, “Heterocyclic compounds and uses thereof” (Kumquat Biosciences Inc., priority 2022, dated 2025).

Experiments:
[1] = target: T1, K-Ras G12D (Homo sapiens, UniProt P01116, G12D); experiment: HTRF resonance energy transfer assay, K-Ras G12D / SOS1 interaction; assay type: biochemical; settings: HTRF assay of Example 5; read-out: IC50 against K-Ras G12D
T1 construct: made in house; host or cells: E. coli BL21 (DE3)
In short: (§1)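 GST-tagged K-Ras (WT or mutant) bound to anti-GST-Eu donor was mixed with His-hSOS1 bound to anti-6His-XL665 acceptor in ~5 mM HEPES pH 7.4, 150 mM NaCl, 1 mM DTT, 0.05% BSA, 0.0025% Igepal. HTRF (ex 337, em 620/665 nm) was read after ~10 min or longer. IC50 came from the 665/620 ratio over duplicates from 10 μM to 0.01 μM.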

[2] = target: T2, K-Ras G12S (Homo sapiens, UniProt P01116, G12S); experiment: HTRF resonance energy transfer assay, K-Ras G12S / SOS1 interaction; assay type: biochemical; settings: HTRF assay of Example 5; read-out: IC50 against K-Ras G12S
T2 construct: made in house; host or cells: E. coli BL21 (DE3)
T2 sequence (P01116 1-188 isoform P01116-2 G12S): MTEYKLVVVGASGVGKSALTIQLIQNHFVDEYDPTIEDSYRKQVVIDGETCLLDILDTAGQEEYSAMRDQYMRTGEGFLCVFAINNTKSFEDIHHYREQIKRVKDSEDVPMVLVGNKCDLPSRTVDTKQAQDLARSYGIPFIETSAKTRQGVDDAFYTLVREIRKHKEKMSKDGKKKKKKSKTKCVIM
In short: as §1

[3] = target: T3, K-Ras G12V (Homo sapiens, UniProt P01116, G12V); experiment: HTRF resonance energy transfer assay, K-Ras G12V / SOS1 interaction; assay type: biochemical; settings: HTRF assay of Example 5; read-out: IC50 against K-Ras G12V
T3 construct: made in house; host or cells: E. coli BL21 (DE3)
T3 sequence (P01116 1-188 isoform P01116-2 G12V): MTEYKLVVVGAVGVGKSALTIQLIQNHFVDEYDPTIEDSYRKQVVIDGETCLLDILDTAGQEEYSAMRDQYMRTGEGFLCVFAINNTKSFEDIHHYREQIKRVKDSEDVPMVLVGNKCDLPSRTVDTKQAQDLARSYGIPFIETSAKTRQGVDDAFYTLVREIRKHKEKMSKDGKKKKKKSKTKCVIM
In short: as §1

[4] = target: T4, K-Ras WT (Homo sapiens, UniProt P01116); experiment: HTRF resonance energy transfer assay, K-Ras WT / SOS1 interaction; assay type: biochemical; settings: HTRF assay of Example 5; read-out: IC50 against K-Ras WT
T4 construct: made in house; host or cells: E. coli BL21 (DE3)
T4 sequence (P01116 1-188 isoform P01116-2): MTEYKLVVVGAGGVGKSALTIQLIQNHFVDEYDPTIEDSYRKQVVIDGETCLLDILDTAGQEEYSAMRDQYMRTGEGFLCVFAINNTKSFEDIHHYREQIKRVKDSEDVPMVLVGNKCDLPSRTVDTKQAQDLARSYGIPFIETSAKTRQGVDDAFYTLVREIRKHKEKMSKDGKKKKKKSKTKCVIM
In short: as §1

[5] = tested on: SW620 cells; experiment: Ras cellular assay, growth of cells with K-Ras G12V mutation (CellTiter-Glo); assay type: cell-based; settings: Homo sapiens, SW-620; cell growth, Example 9, G12V mutation; read-out: IC50 against SW620 cells
Description: For example, this assay can be also used to assess a selective growth inhibition of a mutant Ras protein relative to a wildtype, or relative to a different mutant Ras protein.
SW620 (ATCC CCL-227) and Capan-1 (ATCC HTB-79) cell lines comprise a G12V mutation and can be used to assess Ras cellular signaling in vitro, e.g., in response to the compounds herein. SW620 culture medium is prepared with RPMI-1640 and 10% heat-inactivated FBS. Capan-1 culture medium is prepared with RPMI-1640 and 10% heat-inactivated FBS. A CellTiter-Glo (CTG) luminescent based assay (Promega) is used to assess growth of the cells, as a measurement of the ability of the compounds herein to inhibit Ras signaling in the cells. The cells (e.g., 800 per well) are seeded in their respective culture medium in standard tissue culture-treated 384-well format plates (Falcon #08-772-116) or ultra-low attachment surface 384-well format plates (S-Bio #MS-9384WZ). The day after plating, cells are treated with a dilution series (e.g., a 10 point 3-fold dilution series) of the compounds herein (e.g., approximately 40 μL final volume per well). Cell viability can be monitored (e.g., approximately 6 days later) according to the manufacturer's recommended instructions, where the CellTiter-Glo reagent is added (e.g., approximately 10 μL), vigorously mixed, covered, and placed on a plate shaker (e.g., approximately for 20 min) to ensure sufficient cell lysis prior to assessment of luminescent signal. The IC50 values are determined using the four parameter fit. The resulting IC50 value is a measurement of the ability of the compounds herein to reduce cell growth of Ras-driven cells (e.g., tumor cell lines) in vitro and/or in vivo.

T1 sequence (P01116 1-188 isoform P01116-2 G12D): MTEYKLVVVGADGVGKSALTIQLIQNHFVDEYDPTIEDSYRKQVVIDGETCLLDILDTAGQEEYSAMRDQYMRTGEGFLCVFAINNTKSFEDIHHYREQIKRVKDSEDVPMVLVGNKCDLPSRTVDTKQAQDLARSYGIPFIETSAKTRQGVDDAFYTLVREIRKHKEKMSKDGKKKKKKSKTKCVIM

| IC50 [1] | IC50 [2] | IC50 [3] | IC50 [4] | IC50 [5] | SMILES |
| --- | --- | --- | --- | --- | --- |
| < 100 nM | < 100 nM | < 100 nM | < 100 nM | < 5000 nM | N#Cc1c(N)sc2c(F)ccc(-c3c(Cl)c4c5c(nc(OC[C@@]67CCCN6C[C@H](F)C7)nc5c3F)N(C3CCC(N)C3)CCO4)c12 (stereo partly drawn) [Compound 907, 2-amino-4-(4-(3-aminocyclopentyl)-8-chloro-10-fluoro-2-(((2R,7aS)-2-fluorotetrahydro-1H-pyrrolizin-7a(5H)-yl)methoxy)-5,6-dihydro-4H-[1,4]oxazepino[5,6,7-de]quinazolin-9-yl)-7-fluorobenzo[b]thiophene-3-carbonitrile] |
| < 100 nM | < 100 nM | < 100 nM | < 100 nM | < 5000 nM | Cn1nc(N)cc1CN1CCOc2c(Cl)c(-c3ccc(F)c4sc(N)c(C#N)c34)c(F)c3nc(OC[C@@]45CCCN4C[C@H](F)C5)nc1c23 [Compound 770, 2-amino-4-(4-((3-amino-1-methyl-1H-pyrazol-5-yl)methyl)-8-chloro-10-fluoro-2-(((2R,7aS)-2-fluorotetrahydro-1H-pyrrolizin-7a(5H)-yl)methoxy)-5,6-dihydro-4H-[1,4]oxazepino[5,6,7-de]quinazolin-9-yl)-7-fluorobenzo[b]thiophene-3-carbonitrile] |
| < 100 nM | < 100 nM | < 100 nM | < 100 nM | < 5000 nM | C[C@H]1COc2c(Cl)c(-c3ccc(F)c4sc(N)c(C#N)c34)c(F)c3nc(OC[C@@]45CCCN4C[C@H](F)C5)nc(c23)N1CC1CC1C#N (stereo partly drawn) [Compound 818, 2-amino-4-((5S)-8-chloro-4-((2-cyanocyclopropyl)methyl)-10-fluoro-2-(((2R,7aS)-2-fluorotetrahydro-1H-pyrrolizin-7a(5H)-yl)methoxy)-5-methyl-5,6-dihydro-4H-[1,4]oxazepino[5,6,7-de]quinazolin-9-yl)-7-fluorobenzo[b]thiophene-3-carbonitrile] |
| < 100 nM | < 100 nM | < 100 nM | < 100 nM | < 5000 nM | CC1Oc2c(Cl)c(-c3ccc(F)c4sc(N)c(C#N)c34)c(F)c3nc(OC[C@@]45CCCN4C[C@H](F)C5)nc(c23)N(CC(F)F)[C@H]1C(C)(C)O (stereo partly drawn) [Compound 810, 2-amino-4-((5R)-8-chloro-4-(2,2-difluoroethyl)-10-fluoro-2-(((2R,7aS)-2-fluorotetrahydro-1H-pyrrolizin-7a(5H)-yl)methoxy)-5-(2-hydroxypropan-2-yl)-6-methyl-5,6-dihydro-4H-[1,4]oxazepino[5,6,7-de]quinazolin-9-yl)-7-fluorobenzo[b]thiophene-3-carbonitrile] |
| < 100 nM | < 100 nM | < 100 nM | < 100 nM | < 5000 nM | CC[C@H]1COc2c(Cl)c(-c3ccc(F)c4sc(N)c(C#N)c34)c(F)c3nc(OC[C@@]45CCCN4C[C@H](F)C5)nc(c23)N1CC(F)F [Compound 619, 2-amino-4-((5S)-8-chloro-4-(2,2-difluoroethyl)-5-ethyl-10-fluoro-2-(((2R,7aS)-2-fluorotetrahydro-1H-pyrrolizin-7a(5H)-yl)methoxy)-5,6-dihydro-4H-[1,4]oxazepino[5,6,7-de]quinazolin-9-yl)-7-fluorobenzo[b]thiophene-3-carbonitrile] |
| < 100 nM | < 100 nM | < 100 nM | < 100 nM | < 5000 nM | N#Cc1c(N)sc2c(F)ccc(-c3c(Cl)c4c5c(nc(OC[C@@]67CCCN6C[C@H](F)C7)nc5c3F)N(Cc3ccnn3CC(F)F)CCO4)c12 [Compound 720, 2-amino-4-(8-chloro-4-((1-(2,2-difluoroethyl)-1H-pyrazol-5-yl)methyl)-10-fluoro-2-(((2R,7aS)-2-fluorotetrahydro-1H-pyrrolizin-7a(5H)-yl)methoxy)-5,6-dihydro-4H-[1,4]oxazepino[5,6,7-de]quinazolin-9-yl)-7-fluorobenzo[b]thiophene-3-carbonitrile] |
| < 100 nM | < 100 nM | < 100 nM | < 100 nM | < 5000 nM | CC(O)C1COc2c(Cl)c(-c3ccc(F)c4sc(N)c(C#N)c34)c(F)c3nc(OC[C@@]45CCCN4C[C@H](F)C5)nc(c23)N1CC1CCCNC1 (stereo partly drawn) [Compound 764, 2-amino-4-(8-chloro-10-fluoro-2-(((2R,7aS)-2-fluorotetrahydro-1H-pyrrolizin-7a(5H)-yl)methoxy)-5-(1-hydroxyethyl)-4-(piperidin-3-ylmethyl)-5,6-dihydro-4H-[1,4]oxazepino[5,6,7-de]quinazolin-9-yl)-7-fluorobenzo[b]thiophene-3-carbonitrile] |
| < 100 nM | < 100 nM | < 100 nM | < 100 nM | < 5000 nM | N#Cc1c(N)sc2c(F)ccc(-c3c(Cl)c4c5c(nc(OC[C@@]67CCCN6C[C@H](F)C7)nc5c3F)N(CC3CC3C#N)[C@@H](C(F)F)CO4)c12 (stereo partly drawn) [Compound 853, 2-amino-4-((5R)-8-chloro-4-((2-cyanocyclopropyl)methyl)-5-(difluoromethyl)-10-fluoro-2-(((2R,7aS)-2-fluorotetrahydro-1H-pyrrolizin-7a(5H)-yl)methoxy)-5,6-dihydro-4H-[1,4]oxazepino[5,6,7-de]quinazolin-9-yl)-7-fluorobenzo[b]thiophene-3-carbonitrile] |
| < 100 nM | < 100 nM | < 100 nM | < 100 nM | < 5000 nM | COC(C)[C@H]1COc2c(Cl)c(-c3ccc(F)c4sc(N)c(C#N)c34)c(F)c3nc(OC[C@@]45CCCN4C[C@H](F)C5)nc(c23)N1CC(F)F (stereo partly drawn) [Compound 630, 2-amino-4-((5R)-8-chloro-4-(2,2-difluoroethyl)-10-fluoro-2-(((2R,7aS)-2-fluorotetrahydro-1H-pyrrolizin-7a(5H)-yl)methoxy)-5-(1-methoxyethyl)-5,6-dihydro-4H-[1,4]oxazepino[5,6,7-de]quinazolin-9-yl)-7-fluorobenzo[b]thiophene-3-carbonitrile] |
| < 100 nM | < 100 nM | < 100 nM | < 100 nM | < 5000 nM | N#Cc1c(N)sc2c(F)ccc(-c3c(Cl)c4c5c(nc(OC[C@@]67CCCN6C[C@H](F)C7)nc5c3F)N(C3CC3)[C@@H](CNC=O)CO4)c12 [Compound 1084, N-(((5S)-9-(2-amino-3-cyano-7-fluorobenzo[b]thiophen-4-yl)-8-chloro-4-cyclopropyl-10-fluoro-2-(((2R,7aS)-2-fluorotetrahydro-1H-pyrrolizin-7a(5H)-yl)methoxy)-5,6-dihydro-4H-[1,4]oxazepino[5,6,7-de]quinazolin-5-yl)methyl)formamide] |
| < 100 nM | < 100 nM | < 100 nM | < 100 nM | < 5000 nM | N#Cc1c(N)sc2c(F)ccc(-c3c(Cl)c4c5c(nc(OC[C@@]67CCCN6C[C@H](F)C7)nc5c3F)N(CC3CC3C#N)[C@@H](C3(O)CC3)CO4)c12 (single isomer, unassigned) [Compound 821] |
| < 100 nM | < 100 nM | < 100 nM | < 100 nM | < 5000 nM | CN1c2nc(OC[C@@]34CCCN3C[C@H](F)C4)nc3c(F)c(-c4ccc(F)c5sc(N)c(C#N)c45)c(Cl)c(c23)OCC[C@H]1C1CC1 [Compound 1209, 2-amino-4-((5S)-9-chloro-5-cyclopropyl-11-fluoro-2-(((2R,7aS)-2-fluorotetrahydro-1H-pyrrolizin-7a(5H)-yl)methoxy)-4-methyl-4,5,6,7-tetrahydro-[1,5]oxazocino[4,3,2-de]quinazolin-10-yl)-7-fluorobenzo[b]thiophene-3-carbonitrile] |
